# Legend:
# HCT116 xenograft tumors = test: Xenograft study, HCT116 (parental cells); type: in vivo, mice; conditions: for tumor regression: alone or in combination; for combinational effect with AOA: drug combined with AOA (10 mg/kg), HCT116 xenograft
# Source text: (§1) FIGS. 4(A-D) illustrate plots showing aminooxyacetate (AOA) inhibits xenograft tumor growth of PIK3CA mutant CRCs but not PIK3CA WT CRCs. (A-B) AOA inhibits growth of xenograft formed by PIK3CA mutant clones but not PIK3CA WT clones. (A) Clones derived from HCT116 cells; (B) Clones derived from DLD1. (C) AOA inhibits growth of xenograft tumors formed by four CRC cell lines harboring PIK3CA mutations. […] N=5 mice in each experimental group. Data are presented as mean±SEM.
# FIGS. 10(A-B) illustrate plots showing AOA synergizes with 5-FU to inhibit growth of HCT116 xenograft tumors.
# FIGS. 12(A-B) illustrate images and a plot showing the combination of CB-839 and 5-FU shrinks HCT116 xenograft tumors.
# (§2) Animal experiments were approved by the Case Western Reserve University Animal Care and Use Committee. As described in, 3 million cells were injected subcutaneously into the flanks of 4 to 6-week-old female athymic nude mice. Mice were randomly assigned into treatment groups (5 mice/group). When average tumor volume reached 100 mm3, mice were treated with vehicle control, 5 mg/kg or 10 mg/kg of AOA every day per IP (intraperitoneal) injection. Tumor volumes were measured with an electronic caliper and calculated as length×width^2/2.
# SW480 xenograft tumors = test: Xenograft study, SW480; type: in vivo, mice; conditions: SW480 (WT PIK3CA); AOA every day IP
# Source text: as §1, §2
# GPT activity = GPT activity in treated xenograft tumors assayed by amounts of α-KG; type: in vivo, mice; conditions: Mus musculus, AOA 10 mg/kg
# Protocol: (§3) FIGS. 11(A-C) illustrate plots and graph showing (A) enzyme kinetics of GPT2. Recombinant GPT2 was mixed with α-KG and alanine. The product pyruvate was detected by a colorimetric assay. (B) IC50 of AOA to GPT2. (C) Relative amounts of α-KG. Xenograft tumors were treated with 10 mg/kg of AOA or vehicle. α-KG in a untreated tumor was set as 100%.
# (§4) However, AOA is pan-transaminase inhibitor.
# [1] = system: DLD1 PIK3CA mutant clone xenograft; test: Xenograft study, DLD1 PIK3CA mutant clone; type: in vivo; conditions: DLD1 PIK3CA mutant clone in nude mice; AOA 5 or 10 mg/kg every day IP
# Source text: as §1, §2
# [2] = Body weights of xenograft mice before and after AOA treatment; type: in vivo; conditions: xenograft mice treated with AOA
# Source text: (§5) FIGS. 9(A-C) illustrate graphs and an immunoblot showing aminooxyacetate (AOA) inhibits PIK3CA mutant tumor growth. (A) IC50 of AOA in HCT116 and DLD1 PIK3CA WT and mutant clones. (B) Body weights of the mice with xenograft established from the indicated CRC cells before and after AOA treatment. N=5 mice in each group. (C) Western blot analyses of GPT2 protein levels in the indicated cell lines.
# as §2
# HT29 xenograft tumors = test: Xenograft study, HT29; type: in vivo, mice; conditions: HT29 (PIK3CA mutant); AOA every day IP
# Source text: as §1, §2
# DLD1 xenograft tumors = test: Xenograft study, DLD1 (parental cells); type: in vivo, mice; conditions: DLD1 parental cells (PIK3CA mutant); AOA every day IP
# Source text: as §1, §2
# [3] = system: DLD1 PIK3CA WT clone xenograft; test: Xenograft study, DLD1 PIK3CA WT clone; type: in vivo; conditions: isogenic DLD1 PIK3CA WT clone in nude mice; AOA every day IP
# Source text: as §1, §2
# LOVO xenograft tumors = test: Xenograft study, LOVO; type: in vivo, mice; conditions: LOVO (WT PIK3CA); AOA every day IP
# Source text: as §1, §2
# [4] = system: HCT116 PIK3CA WT clone xenograft; test: Xenograft study, HCT116 PIK3CA WT clone; type: in vivo; conditions: isogenic HCT116 PIK3CA WT clone in nude mice; AOA every day IP
# Source text: as §1, §2
# [5] = system: HCT116 PIK3CA mutant clone xenograft; test: Xenograft study, HCT116 PIK3CA mutant clone; type: in vivo; conditions: HCT116 PIK3CA mutant clone in nude mice; AOA 5 or 10 mg/kg every day IP
# Source text: as §1, §2
# [6] = system: DLD1 PIK3CA mutant and WT clones; test: Growth inhibition in tissue culture, DLD1 PIK3CA mutant vs WT clones; type: cell-based; conditions: for sensitivity to growth inhibition, PIK3CA-/mut vs PIK3CA WT/- cells: DLD1, various doses
# Source text: as §5
# (§6) To test if PIK3CA mutations render cancer cell sensitive to these inhibitors, we treated PIK3CA-/mut, PIK3CA WT/-HCT116 and DLD1 colon cancer cells with various doses of EGCG and BPTES.
# [7] = system: HCT116 PIK3CA mutant and WT clones; test: Growth inhibition in tissue culture, HCT116 PIK3CA mutant vs WT clones; type: cell-based; conditions: for sensitivity to growth inhibition, PIK3CA-/mut vs PIK3CA WT/- cells: HCT116, various doses
# Source text: as §5, §6
# Recombinant GPT2 = target: T1, Recombinant GPT2 (Homo sapiens, UniProt Q8TD30); test: GPT2 enzymatic assay (colorimetric pyruvate detection); type: biochemical; conditions: recombinant GPT2 mixed with α-KG and alanine; read-out: IC50 of AOA to GPT2
# T1 sequence (Q8TD30 1-523): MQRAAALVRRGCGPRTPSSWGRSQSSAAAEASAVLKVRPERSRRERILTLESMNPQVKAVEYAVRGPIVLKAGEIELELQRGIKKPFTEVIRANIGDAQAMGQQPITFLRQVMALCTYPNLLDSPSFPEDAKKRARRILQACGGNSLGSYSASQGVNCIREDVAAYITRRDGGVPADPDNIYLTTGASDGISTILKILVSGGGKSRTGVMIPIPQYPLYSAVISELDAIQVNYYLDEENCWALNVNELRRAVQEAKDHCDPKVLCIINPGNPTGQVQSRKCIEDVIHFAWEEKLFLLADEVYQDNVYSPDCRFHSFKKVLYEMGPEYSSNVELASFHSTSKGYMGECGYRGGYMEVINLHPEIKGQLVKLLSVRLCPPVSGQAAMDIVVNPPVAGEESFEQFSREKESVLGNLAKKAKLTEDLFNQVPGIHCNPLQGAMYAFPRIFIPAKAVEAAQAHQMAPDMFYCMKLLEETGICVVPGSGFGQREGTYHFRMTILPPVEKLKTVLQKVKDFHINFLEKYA
# Protocol: as §3, §4
# RKO xenograft tumors = test: Xenograft study, RKO; type: in vivo, mice; conditions: RKO (PIK3CA mutant); AOA every day IP
# Source text: as §1, §2
# [8] = system: ATF4 protein levels in the HCT116 PIK3CA mutant clone; test: ATF4 protein levels after inhibitor exposure (immunoblot); type: cell-based; conditions: Western blot (FIG. 6C)
# Protocol: Ubiquitination of endogenous ATF4 (A). Ubiquitination of ectopically expressed Flag-tagged ATF4 and HA-tagged ubiquitin (B).
# Cells were lysed in RIPA buffer [10 mM Tris (pH 7.4), 150 mM NaCl, 5 mM EDTA (pH 8.0), 0.1% SDS, 1% Triton-X100, 1 mM DTT, 1 mM PMSF, complete Protease Inhibitor Cocktail tablet (Roche); supplemented with phosphatase inhibitors (1 mM Na3VO4, 50 mM NaF, 1 mM β-glycerophosphate, 20 mM sodium pyrophosphate)]. Lysates were then cleared by centrifugation at 14,000 rpm for 10 min and protein concentration in supernatants was determined by the BCA protein assay kit (Pierce). Equal amounts of total protein were used for immunoblotting. For immunoprecipitation (IP), cells were lysed as mentioned above. Cleaned cell lysate incubated with antibody for one hour, and then protein A and/or protein G for one hour. Protein A/G beads were washed with lysis buffer three times, and then boiled with SDS-loading buffer followed with immunoblotting.
# [9] = HCT116 (PIK3CA mutant CRC) xenograft
# [10] = single agent, HCT116 (PIK3CA mutant CRC) xenograft
structure (smiles),measurement,setting,value
"O=c1[nH]cc(F)c(=O)[nH]1 [5-FU, 5-fluorouracil]",tumor regression,HCT116 xenograft tumors; [9],neither induced tumor regression
same,xenograft tumor growth,HCT116 xenograft tumors; [10],inhibited tumor growth to various extents
"NOCC(=O)O [AOA, aminooxyacetate]",xenograft tumor growth,SW480 xenograft tumors,had no effect on xenograft tumor growth
same,inhibition at 10 mg/kg,GPT activity,~30%
same,xenograft tumor growth,[1],significantly inhibited the growth
same,weight loss of treated mice,[2],No weight loss was observed
same,xenograft tumor growth,HT29 xenograft tumors,inhibited xenograft tumor growth
same,xenograft tumor growth,DLD1 xenograft tumors,inhibited xenograft tumor growth
same,xenograft tumor growth,[3],had no effect
same,xenograft tumor growth,LOVO xenograft tumors,had no effect on xenograft tumor growth
same,xenograft tumor growth,[4],had no effect
same,xenograft tumor growth,[5],significantly inhibited the growth
same,"sensitivity to AOA treatment, PIK3CA mutant clones vs WT clones",[6]; DLD1 clones,more sensitive to AOA treatment than the WT clones
same,"sensitivity to AOA treatment, PIK3CA mutant clones vs WT clones",[7]; HCT116 clones,more sensitive to AOA treatment than the WT clones
same,IC50,Recombinant GPT2,980 nM
same,xenograft tumor growth,"HCT116 xenograft tumors; HCT116 parental cells (PIK3CA mutant), AOA every day IP",inhibited xenograft tumor growth
same,xenograft tumor growth,RKO xenograft tumors,inhibited xenograft tumor growth
CC(C)CCN1c2nc(Nc3cc(F)c(O)c(F)c3)ncc2N(C)C(=O)C1C (stereo not shown) [BI-D1870],ATF4 protein levels,[8],reduced ATF4 protein levels
O=C(Cc1ccccc1)Nc1nnc(CCSCCc2nnc(NC(=O)Cc3ccccc3)s2)s1 [BPTES],"sensitivity to growth inhibition, PIK3CA-/mut vs PIK3CA WT/- cells",[6],more sensitive to growth inhibition
same,"sensitivity to growth inhibition, PIK3CA-/mut vs PIK3CA WT/- cells",[7],more sensitive to growth inhibition
O=C(Cc1cccc(OC(F)(F)F)c1)Nc1ccc(CCCCc2nnc(NC(=O)Cc3ccccn3)s2)nn1 [CB-839],tumor regression,HCT116 xenograft tumors; [9],neither induced tumor regression
same,xenograft tumor growth,HCT116 xenograft tumors; [10],inhibited tumor growth to various extents
Cn1c(=O)n(-c2ccc(C(C)(C)C#N)cc2)c2c3cc(-c4cnc5ccccc5c4)ccc3ncc21 [DEZ235],ATF4 protein levels,[8],reduced ATF4 protein levels
"O=C(O[C@@H]1Cc2c(O)cc(O)cc2O[C@@H]1c1cc(O)c(O)c(O)c1)c1cc(O)c(O)c(O)c1 [EGCG, Epigallocatechin gallate]","sensitivity to growth inhibition, PIK3CA-/mut vs PIK3CA WT/- cells",[6],more sensitive to growth inhibition
same,"sensitivity to growth inhibition, PIK3CA-/mut vs PIK3CA WT/- cells",[7],more sensitive to growth inhibition
Cc1ccc(-c2c(C(=O)CF)n(CCCO)c3ncnc(N)c23)cc1 [FMK],ATF4 protein levels,[8],reduced ATF4 protein levels
CCn1c(-c2nonc2N)nc2c(C#CC(C)(C)O)ncc(OC[C@H]3CCCNC3)c21 [GSK690693],ATF4 protein levels,[8],neither an AKT inhibitor (GSK690693) nor an inhibitor (CHIR-99021) of GSK3β(a known downstream effector of AKT) had any effect on ATF4 protein levels
CNc1nc(-c2ccc3c(N)n[nH]c3c2)cc(N2C[C@@H](C(=O)NC3CCCCC3)CC[C@H]2C)n1 [GSK2334470],ATF4 protein levels,[8],reduced ATF4 protein levels
CCc1c2c(nc3ccc(OC(=O)N4CCC(N5CCCCC5)CC4)cc13)-c1cc3c(c(=O)n1C2)COC(=O)[C@]3(O)CC [irinotecan],combinational effect with AOA,HCT116 xenograft tumors,none of the other drug showed any combinational effect with AOA
O=C1[O][Pt]2([NH][C@@H]3CCCC[C@H]3[NH]2)[O]C1=O [oxaliplatin],combinational effect with AOA,HCT116 xenograft tumors,none of the other drug showed any combinational effect with AOA
CNC(=O)c1cc(Oc2ccc(NC(=O)Nc3ccc(Cl)c(C(F)(F)F)c3)c(F)c2)ccn1 [regorafenib],combinational effect with AOA,HCT116 xenograft tumors,none of the other drug showed any combinational effect with AOA
